Laboratory results reported in the NIST ThermoML archive (doi:10.1021/je300873x).

Experiment: mn = molality of the nth substance listed, in mol/kg
Settings: for surface tension liquid-gas: Pendant drop shape; for electrical conductivity: Liquid, Digital conductivity meter

CCCCCCCCCCCCCC[N+](C)(CCO)CCO.[Br-] [N,N-bis(2-hydroxyethyl)-N-methyltetradecanaminium bromide] + O
Settings | electrical conductivity [S/m] | surface tension liquid-gas [mN/m]
298.15 K, m1 = 0.0003 | – | 64.43
298.15 K, m1 = 0.00061 | – | 59.09
298.15 K, m1 = 0.00081 | – | 56.14
298.15 K, m1 = 0.00102 | – | 54.31
298.15 K, m1 = 0.00152 | – | 48.51
298.15 K, m1 = 0.00203 | – | 44.69
298.15 K, m1 = 0.00254 | – | 40.4
298.15 K, m1 = 0.0026 | 0.021 | –
298.15 K, m1 = 0.0027 | 0.0218 | –
298.15 K, m1 = 0.0028 | 0.0226 | –
298.15 K, m1 = 0.00292 | 0.0235 | –
298.15 K, m1 = 0.00305 | 0.0242 | 38.3
298.15 K, m1 = 0.00319 | 0.025 | –
298.15 K, m1 = 0.00334 | 0.0255 | –
298.15 K, m1 = 0.00351 | 0.0259 | –
298.15 K, m1 = 0.00369 | 0.0262 | –
298.15 K, m1 = 0.0039 | 0.0267 | –
298.15 K, m1 = 0.00412 | 0.0272 | –
298.15 K, m1 = 0.00438 | 0.0277 | –
298.15 K, m1 = 0.00467 | 0.0283 | 38.31
298.15 K, m1 = 0.00501 | 0.0289 | –
298.15 K, m1 = 0.00508 | – | 38.46
298.15 K, m1 = 0.00539 | 0.0298 | –
298.15 K, m1 = 0.00584 | 0.0306 | –
298.15 K, m1 = 0.00609 | – | 38.23
298.15 K, m1 = 0.00637 | 0.0317 | –
298.15 K, m1 = 0.00812 | – | 38.23
303.15 K, m1 = 0.00259 | 0.0232 | –
303.15 K, m1 = 0.00269 | 0.024 | –
303.15 K, m1 = 0.0028 | 0.025 | –
303.15 K, m1 = 0.00292 | 0.0257 | –
303.15 K, m1 = 0.00304 | 0.0268 | –
303.15 K, m1 = 0.00318 | 0.0278 | –
303.15 K, m1 = 0.00333 | 0.0282 | –
303.15 K, m1 = 0.0035 | 0.029 | –
303.15 K, m1 = 0.00369 | 0.0295 | –
303.15 K, m1 = 0.00389 | 0.03 | –
303.15 K, m1 = 0.00412 | 0.0305 | –
303.15 K, m1 = 0.00438 | 0.0311 | –
303.15 K, m1 = 0.00467 | 0.0318 | –
303.15 K, m1 = 0.005 | 0.0325 | –
303.15 K, m1 = 0.00539 | 0.0334 | –
303.15 K, m1 = 0.00584 | 0.0343 | –
303.15 K, m1 = 0.00637 | 0.0356 | –
308.15 K, m1 = 0.00259 | 0.0256 | –
308.15 K, m1 = 0.00269 | 0.0264 | –
308.15 K, m1 = 0.0028 | 0.0274 | –
308.15 K, m1 = 0.00291 | 0.0285 | –
308.15 K, m1 = 0.00304 | 0.0297 | –
308.15 K, m1 = 0.00318 | 0.0309 | –
308.15 K, m1 = 0.00333 | 0.0318 | –
308.15 K, m1 = 0.0035 | 0.0325 | –
308.15 K, m1 = 0.00368 | 0.0331 | –
308.15 K, m1 = 0.00388 | 0.0336 | –
308.15 K, m1 = 0.00411 | 0.0342 | –
308.15 K, m1 = 0.00437 | 0.0349 | –
308.15 K, m1 = 0.00466 | 0.0357 | –
308.15 K, m1 = 0.00499 | 0.0367 | –
308.15 K, m1 = 0.00538 | 0.0376 | –
308.15 K, m1 = 0.00583 | 0.0387 | –
308.15 K, m1 = 0.00636 | 0.0401 | –
313.15 K, m1 = 0.00258 | 0.028 | –
313.15 K, m1 = 0.00268 | 0.0291 | –
313.15 K, m1 = 0.00279 | 0.0303 | –
313.15 K, m1 = 0.00291 | 0.0314 | –
313.15 K, m1 = 0.00303 | 0.0327 | –
313.15 K, m1 = 0.00317 | 0.0341 | –
313.15 K, m1 = 0.00332 | 0.0353 | –
313.15 K, m1 = 0.00349 | 0.0364 | –
313.15 K, m1 = 0.00367 | 0.0373 | –
313.15 K, m1 = 0.00388 | 0.038 | –
313.15 K, m1 = 0.0041 | 0.0386 | –
313.15 K, m1 = 0.00436 | 0.0396 | –
313.15 K, m1 = 0.00465 | 0.0403 | –
313.15 K, m1 = 0.00498 | 0.0411 | –
313.15 K, m1 = 0.00537 | 0.0424 | –
313.15 K, m1 = 0.00582 | 0.0437 | –
313.15 K, m1 = 0.00634 | 0.0453 | –
318.15 K, m1 = 0.00258 | 0.0307 | –
318.15 K, m1 = 0.00268 | 0.0318 | –
318.15 K, m1 = 0.00279 | 0.033 | –
318.15 K, m1 = 0.0029 | 0.0344 | –
318.15 K, m1 = 0.00303 | 0.0355 | –
318.15 K, m1 = 0.00317 | 0.0372 | –
318.15 K, m1 = 0.00332 | 0.0389 | –
318.15 K, m1 = 0.00348 | 0.0407 | –
318.15 K, m1 = 0.00367 | 0.0413 | –
318.15 K, m1 = 0.00387 | 0.0425 | –
318.15 K, m1 = 0.0041 | 0.0436 | –
318.15 K, m1 = 0.00435 | 0.0446 | –
318.15 K, m1 = 0.00464 | 0.0455 | –
318.15 K, m1 = 0.00497 | 0.0467 | –
318.15 K, m1 = 0.00536 | 0.0478 | –
318.15 K, m1 = 0.0058 | 0.0494 | –
318.15 K, m1 = 0.00633 | 0.0511 | –
323.15 K, m1 = 0.00257 | 0.0334 | –
323.15 K, m1 = 0.00267 | 0.0347 | –
323.15 K, m1 = 0.00278 | 0.0359 | –
323.15 K, m1 = 0.0029 | 0.0374 | –
323.15 K, m1 = 0.00302 | 0.0388 | –
323.15 K, m1 = 0.00316 | 0.0406 | –
323.15 K, m1 = 0.00331 | 0.0424 | –
323.15 K, m1 = 0.00347 | 0.0444 | –
323.15 K, m1 = 0.00366 | 0.0464 | –
323.15 K, m1 = 0.00386 | 0.0477 | –
323.15 K, m1 = 0.00409 | 0.049 | –
323.15 K, m1 = 0.00434 | 0.0502 | –
323.15 K, m1 = 0.00463 | 0.0514 | –
323.15 K, m1 = 0.00496 | 0.0526 | –
323.15 K, m1 = 0.00535 | 0.054 | –
323.15 K, m1 = 0.00579 | 0.0559 | –
323.15 K, m1 = 0.00632 | 0.0577 | –
